Results published in paper PMC6125551 (Antimicrobial Agents and Chemotherapy, 2018).
Read-outs that look alike come from different tables or passages of the source. Values belong to the molecule of their own block, whether it stands above or below them.

Assays:
[1] = clinical; conditions: male, human, 500 mg
Description: (§1) Study 1 (protocol 001) was a phase 1, randomized, double-blind, placebo-controlled, rising single- and multiple-dose study conducted at a single center that investigated relebactam in healthy adult men. The study was conducted in four parts, and all doses were administered intravenously (i.v.) in a total volume of 100 ml over 30 min.
(§2) In each panel, in all periods (except period 4), subjects were randomized to receive a placebo (n = 2) or relebactam (n = 6).
(§3) The plasma was mixed with a stabilizer containing morpholineethanesulfonic acid buffer and ethylene glycol before storage at −70°C. […] The assay utilized hydrophilic interaction chromatography (HILIC) and tandem mass spectrometry. Stable isotope-labeled internal standards were used for all three analytes.
(§4) Pharmacokinetic parameters were determined from plasma and urine concentration-time data by a noncompartmental approach using Phoenix WinNonlin, version 6.3 (Certara LP, Princeton, NJ, USA). The CEOI (concentration at end of infusion) and Tmax (time to maximum concentration) were generated from each analyte's plasma concentration-time data. All AUC values were calculated using the linear trapezoidal method for ascending concentrations and the log trapezoidal method for descending concentrations (calculation method options in WinNonlin). AUC0–∞ was calculated as the sum of AUC0–last and Cest, last/λz, where AUC0–last is the AUC from time 0 to the time of the last quantifiable concentration, Cest, last is the predicted concentration at the time of the last quantifiable concentration, and λz is the apparent terminal rate constant. […] At least three consecutive data points (excluding Cmax) in terminal phase were used for λz calculations. Clearance (CL) was calculated as dose/AUC0–∞.

[2] = Urine pharmacokinetics, single dose, study 2; conditions: both, human, CLR, range
Description: (§5) Study 2 (protocol 002) was a phase 1, randomized, double-blind, placebo-controlled study with three panels of healthy participants that included elderly men (panel L [n = 8]), elderly women (panel M [n = 8]), and adult women (panel N [n = 8]).
as §3
(§6) The amount of unchanged drug excreted in urine during a collection interval (Ae) was calculated by a cumulative sum of urine (concentration of unchanged drug × volume) per collection interval. The fraction of the dose excreted in urine (fe) was calculated as Ae/dose.

[3] = Urine pharmacokinetics, single dose, study 1 part I, healthy men; conditions: imipenem-cilastatin 500 mg alone, adult men from study 1
Description: as §2, §3, §6

[4] = for AUC(0-t) / half-life: male, human, in vivo
Description: (§7) Each panel was dosed sequentially, allowing for assessment of safety and tolerability before dose escalation.
as §3, §4

[5] = clinical; conditions: female, human, plasma, intravenous
Description: as §5, §3, §4

[6] = clinical; conditions: male, human, in vivo
Description: as §2, §3, §6

[7] = clinical; conditions: male, human, in vivo; remark: listed apart in the source
Description: as §7, §3, §4

[8] = Plasma pharmacokinetics, single dose as 30-min i.v. infusion, study 1 part I, healthy men; conditions: for half-life / AUC(0-inf) / concentration at 30 min / clearance / Vd: male, human, plasma; for AUC(0-inf): AUC0–∞; for concentration at 30 min: CEOI; for clearance: CL; for Vd: Vz;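 as to all read-outs here: plasma analyte levels quantified by HILIC with tandem mass spectrometry, parameters derived noncompartmentally in WinNonlin, AUC by linear-up log-down trapezoidal rule, clearance taken as dose over AUC0–∞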
Description: as §1, §2, §3, §4

[9] = Safety and tolerability, single dose, study 1 part I; type: in vivo, human
Description: The safety analysis comprised the all-subjects-as-treated (ASaT) population, which included those participants who received ≥1 dose of investigational drug.

[10] = male, human, in vivo, 250 mg
Description: as §2, §3, §6

[11] = male, human, in vivo
Description: as §7, §3, §6

[12] = assumed for the calculation, no reference given; cited from earlier work
[13] = clinical; conditions: male, human, in vivo, unbound CLR
Description: as §7, §3, §6

[14] = Plasma pharmacokinetics, single dose, study 2 (elderly men, elderly women, adult women)
Description: as §5, §3, §4

[15] = urine and plasma, intravenous, adult participants (men and women)
[16] = urine and plasma, intravenous, elderly participants (men and women)
[17] = intravenous, 25 mg, relebactam 25 mg alone, single dose
[18] = intravenous, 50 mg, relebactam 50 mg alone, single dose
[19] = intravenous, 250 mg, relebactam 250 mg alone, single dose
[20] = intravenous, 500 mg, relebactam 500 mg alone, single dose
[21] = intravenous, 1000 mg, relebactam 1,000 mg alone, single dose
[22] = intravenous, 1150 mg, relebactam 1,150 mg alone, single dose
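For CEOI in this document: plasma levels quantified by HILIC with tandem mass spectrometry and isotope-labeled internal standards, parameters derived noncompartmentally in WinNonlin, clearance equal to dose divided by AUC0-∞.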

AUC(0-inf) ([1]; in vivo): 114 ± 13.5 µM·h | Vd ([1]; in vivo): 16.5 ± 2.11 L | concentration at 30 min ([1]; in vivo): 101 ± 16.6 µM | half-life ([1]; in vivo): 0.92 ± 0.051 h | CL renal ([2]; in vivo, adult participants (men and women)): 157 to 168 mL/min | CL renal ([2]; in vivo, elderly participants (men and women)): 112 to 126 mL/min | fe, least squares mean (95% CI) [3]: 88.5 (82.1, 94.9) % | CL renal ([3]; male, human, in vivo, 500 mg, CLR, mean (95% CI)): 168 mL/min | CEOI ([4]; 0 mg relebactam + 500 mg imipenem/cilastatin, panel I, day 1, N 1): 144 µM | CEOI ([4]; 0 mg relebactam + 500 mg imipenem/cilastatin, panel J, day 1): 107 ± 6.53 µM | CEOI ([4]; 0 mg relebactam + 500 mg imipenem/cilastatin, panel K, day 1): 104 ± 10.4 µM | CEOI ([4]; 50 mg relebactam + 500 mg imipenem/cilastatin, panel C, day 1): 106 ± 12.0 µM | CEOI ([4]; 250 mg relebactam + 500 mg imipenem/cilastatin, panel F, day 1): 103 ± 20.0 µM | CEOI ([4]; 500 mg relebactam + 500 mg imipenem/cilastatin, panel H, day 1): 115 ± 21.9 µM | CEOI ([4]; 500 mg relebactam + 500 mg imipenem/cilastatin, panel J, day 1): 98.5 ± 14.6 µM | AUC(0-t) ([4]; AUC0-6, 0 mg relebactam + 500 mg imipenem/cilastatin, panel I, day 1, N 1): 167 µM·h | AUC(0-t) ([4]; AUC0-6, 0 mg relebactam + 500 mg imipenem/cilastatin, panel J, day 1): 110 ± 7.17 µM·h | AUC(0-t) ([4]; AUC0-6, 0 mg relebactam + 500 mg imipenem/cilastatin, panel K, day 1): 126 ± 37.9 µM·h | AUC(0-t) ([4]; AUC0-6, 50 mg relebactam + 500 mg imipenem/cilastatin, panel C, day 1): 127 ± 24.8 µM·h | AUC(0-t) ([4]; AUC0-6, 250 mg relebactam + 500 mg imipenem/cilastatin, panel F, day 1): 110 ± 14.2 µM·h | AUC(0-t) ([4]; AUC0-6, 500 mg relebactam + 500 mg imipenem/cilastatin, panel H, day 1): 136 ± 22.5 µM·h | AUC(0-t) ([4]; AUC0-6, 500 mg relebactam + 500 mg imipenem/cilastatin, panel J, day 1): 106 ± 17.2 µM·h | half-life ([4]; Terminal t1/2, 0 mg relebactam + 500 mg imipenem/cilastatin, panel I, day 1, N 1): 0.962 h | half-life ([4]; Terminal t1/2, 0 mg relebactam + 500 mg imipenem/cilastatin, panel J, day 1): 0.862 ± 0.088 h | half-life ([4]; Terminal t1/2, 0 mg relebactam + 500 mg imipenem/cilastatin, panel K, day 1): 0.908 ± 0.182 h | half-life ([4]; Terminal t1/2, 50 mg relebactam + 500 mg imipenem/cilastatin, panel C, day 1): 1.01 ± 0.142 h | half-life ([4]; Terminal t1/2, 250 mg relebactam + 500 mg imipenem/cilastatin, panel F, day 1): 0.998 ± 0.087 h | half-life ([4]; Terminal t1/2, 500 mg relebactam + 500 mg imipenem/cilastatin, panel H, day 1): 1.01 ± 0.146 h | half-life ([4]; Terminal t1/2, 500 mg relebactam + 500 mg imipenem/cilastatin, panel J, day 1): 0.874 ± 0.117 h
Compound: CC1(C)C[C@@H]1C(=O)N/C(=C\CCCCSC[C@H](N)C(=O)O)C(=O)O [Cilastatin]

AUC(0-inf) ([1]; plasma, intravenous): 140 ± 16.7 µM·h | clearance ([1]; plasma, intravenous): 201 ± 21.4 mL/min | concentration at 30 min ([1]; plasma, intravenous): 102 ± 17 µM | half-life ([1]; plasma, intravenous): 1.13 ± 0.075 h | AUC(0-inf) [5]: 132 ± 18.9 µM·h | CL renal ([6]; 500 mg): 106 ± 20.3 mL/min | CL renal ([6]; 500 mg, CLR, mean (95% CI)): 108 mL/min | AUC(0-t) [7]: 138 ± 15.3 µM·h | clearance [7]: 178 ± 16.1 mL/min | CL renal [2, 15]: 98.6 to 108 mL/min | CL renal [2, 16]: 67.6 to 80.9 mL/min | half-life ([8]; intravenous, t1/2, observed, compared with relebactam): 1.1 h
Compound: C[C@@H](O)[C@H]1C(=O)N2C(C(=O)O)=C(SCCN=CN)C[C@H]12 [Imipenem]

CLR [10]: 144 ± 11.0 mL/min | net active secretion, share of total clearance [11]: approximately 30% | CL renal ([6]; 25 mg, CLR): 177 ± 29.4 mL/min | CL renal ([6]; 50 mg, CLR): 166 ± 21.8 mL/min | CL renal ([6]; 125 mg, CLR): 159 ± 19.6 mL/min | CL renal ([6]; 125 mg, CLR, mean (95% CI)): 158 mL/min | CL renal ([6]; 250 mg, CLR): 153 ± 16.5 mL/min | CL renal ([6]; 500 mg, CLR): 129 ± 20.7 mL/min | CL renal ([6]; 1000 mg, CLR): 127 ± 20.2 mL/min | CL renal ([6]; 1150 mg, CLR): 137 ± 20.6 mL/min | half-life ([7]; geometric mean terminal t1/2, range): 1.42 to 1.85 h | CL renal at 7 days [13]: 173 mL/min | CL renal [2, 15]: 106 to 158 mL/min | CL renal [2, 16]: 69.6 to 89.2 mL/min | increase in AUC0–∞ ([14]; adult women vs adult men (historic data from study 1)): 22% | increase in mean plasma exposure ([14]; elderly men vs adult men): 41% | increase in mean plasma exposure ([14]; elderly women vs adult women): 45% | increase in AUC0–∞ ([14]; elderly women vs elderly men): 25% | AUC(0-inf) [8, 17]: 7.97 ± 1.67 µM·h | concentration at 30 min [8, 17]: 4.42 ± 1.18 µM | clearance [8, 17]: 155 ± 30.6 mL/min | Vd [8, 17]: 18.3 ± 2.99 L | half-life ([8]; intravenous, 25 mg, t1/2, relebactam 25 mg alone, single dose): 1.39 ± 0.246 h | AUC(0-inf) [8, 18]: 15.6 ± 2.73 µM·h | concentration at 30 min [8, 18]: 9.04 ± 1.88 µM | clearance [8, 18]: 157 ± 23.8 mL/min | Vd [8, 18]: 20.5 ± 3.88 L | concentration at 30 min [8, 19]: 45.4 ± 7.27 µM | clearance [8, 19]: 148 ± 16.4 mL/min | Vd [8, 19]: 20.8 ± 2.77 L | half-life ([8]; intravenous, 250 mg, t1/2, relebactam 250 mg alone, single dose): 1.63 ± 0.129 h | AUC(0-inf) [8, 20]: 180 ± 25.7 µM·h | concentration at 30 min [8, 20]: 101 ± 17.6 µM | clearance [8, 20]: 135 ± 19.9 mL/min | Vd [8, 20]: 19.1 ± 2.64 L | half-life ([8]; intravenous, 500 mg, t1/2, relebactam 500 mg alone, single dose): 1.64 ± 0.141 h | AUC(0-inf) [8, 21]: 373 ± 51.9 µM·h | concentration at 30 min [8, 21]: 209 ± 28.6 µM | clearance [8, 21]: 130 ± 18.3 mL/min | Vd [8, 21]: 20.6 ± 3.46 L | half-life ([8]; intravenous, 1000 mg, t1/2, relebactam 1,000 mg alone, single dose): 1.84 ± 0.281 h | AUC(0-inf) [8, 22]: 396 ± 55.3 µM·h | concentration at 30 min [8, 22]: 208 ± 18.3 µM | clearance [8, 22]: 141 ± 18.8 mL/min | Vd [8, 22]: 21.6 ± 2.69 L | half-life ([8]; intravenous, 1150 mg, t1/2, relebactam 1,150 mg alone, single dose): 1.78 ± 0.225 h | half-life ([8]; intravenous, harmonic mean terminal half-life (t1/2), range, single dose, 25- to 1,150-mg dose range, healthy men): 1.35 to 1.8 h | half-life ([8]; iv, terminal half-life (t1/2), range, single- or multiple-dose i.v. administration over 30 min, independent of dose): 1.35 to 1.85 h | AUC0–∞ ([8]; relebactam 250 mg alone, single dose): 81.8 ± 9.07 µM·h
Compound: O=C(NC1CCNCC1)[C@@H]1CC[C@@H]2CN1C(=O)N2OS(=O)(=O)O [Relebactam]
tolerability ([9]; alone or in combination with imipenem-cilastatin, across the dose ranges studied): well tolerated | participants reporting ≥1 drug-related AEs ([9]; single-dose cohort, part I, n = 16, with or without imipenem-cilastatin): 50% | free fraction [12]: 78%
